Data reported in US4840941A, “Method for inhibiting infection of human T-cells” (Kabushiki Kaisha Ueno Seiyaku Oyo Kenkyujo, priority 1986, dated 1989).

Tests used:
[1] = test system: HTLV-III; experiment: Anti-AIDS activity, infected cell rate of MT-4 cells infected with HTLV-III at 6th day; assay type: cell-based; conditions: for anti-AIDS virus activity: MT-4 cells, HTLV-III
Description: (§1) To MT-4 cells (30×10^4 /ml) cultured in RPMI-1640 medium containing 10% bovine serum, was inoculated HTLV-III, and the suspension was incubated at 37° C. for 1 hour to cause the adsorption of the virus. The cell:virus ratio was 500:1. The cells were then washed, and cultured with or without various doses of the test substances (same as those of Example 1) at 37° C. under 5% CO2 for 3 days, after which cell growth, viability, and percentage of infected cells were recorded. The infected cells were distinguished from the uninfected cells by indirect immuno-fluorescence method. Thus; the cultured cells were fixed with cold methanol on a slide glass, reacted with antibody to the HTLV-III-specific antigens, and further with the secondary antibody (having fluorescent label). The results are shown in FIGS. 9-29, wherein, , and show the controls without virus; , and show the infection experiments with HTLV-III. The cell growth is indicated in number of cells, the viability (%) in number of viable cells×100/number of total cells, and the infected cell rate (%) in number of fluorescent-positive cells×100/number of total cells.
In order to examine the correlation between the anti-AIDS virus activity and the molecular structure (especially, molecular weight and S-content or number of sulfate group in this case) of various test substances including those used in Examples 1-7, the anti-AIDS activities were evaluated for the various naturally occurring polysaccharides, polysaccharides having sulfate group, mucopolysaccharides, mucopolysaccharide sulfate, and mucopolysaccharide polysulfate. Further, similar experiments were carried out with various other sulfates which were synthetically obtained. The experimental procedures employed are identical to that in preceding experiments. The cultured MT-4 cells were infected with HTLV-III and the inhibitory effects of various test subsutances on the infected cell rate (number of fluorescent cell×100/ total cell, %) were determined at 6th day.

[2] = test system: reverse transcriptase (authentic sample) derived from Avian Myeloblastosis Virus; experiment: Inhibition of reverse transcriptase activity (AMV); assay type: biochemical; conditions: AMV enzyme; 1, 0.1 and 0.01 μg/ml
Description: Test substances were assayed for inhibition against the enzyme activity of reverse transcriptase (authentic sample) derived from Avian Myeloblastosis Virus (abbrev. AMV), a kind of retrovirus. Five microliters of […] (template RNA), 4 μl of (dT)12-18 (primer DNA), and 1 μl of water were mixed with 5 μl of 0.5M Tris-CHl (pH 8.4) including 0.1% triton X-100, 5 μl of […], 5 μl of 20 mM-DDT, 5 μl of water, and [^3 H]-TTP (tritium labeled thymidine triphosphate). To this mixture, test substances in solutions (final concentrations: 1, 0.1, and 0.01 μg/ml, 5 μl) or buffer solutions (control, 5 μl) at various doses were added. Then, 5 μl (one unit) of the authentic reverse transcriptase derived from AMV was added and the reaction mixture was incubated at 37° C. for 30 minutes. The reaction was stopped by addition of trichloroacetic acid, and after filtering the reaction mixture, the radioactivity of the polymerized (^3 H-T)n retained on the filter was measured using a liquid scintillation counter. As the test substances, sodium dextran sulfate (molecular weight: 5000), same (molecular weight: 8000), same (molecular weight: 500000), fucoidin, κ-carrageenan, λ-carrageenan, and .iota.-carrageenan were used.
The effects of the test substances on the reverse transcriptase activity of AMV were evaluated by the method described in Example 1.

[3] = Acute toxicity (LD50) in mice; assay type: in vivo
[4] = test system: DNA polymerase of phytohemagglutinin stimulated human lymphocytes; conditions: in vitro; Cancer Research, 38, 2401-2407; cited from earlier work
[5] = test system: reverse transciptase of simian sarcoma virus; conditions: in vitro; Cancer Research, 38, 2401-2407; cited from earlier work
[6] = test system: HTLV-III; experiment: Anti-AIDS virus activity, MT-4 cells infected with HTLV-III, 3 days; assay type: cell-based; conditions: increasing dose
Description: as §1
Test substances were assayed for the anti-AIDS virus activity in the same manner as in Example 3 using cell culture. The test substances are the same as those used in Example 5. […]
The anti-AIDS virus activity of heparin was evaluated in the same manner as in Example 3. […]

[7] = test system: disrupted HTLV-III virions as a crude reverse transcriptase; experiment: Inhibition of reverse transcriptase activity (disrupted HTLV-III virions); assay type: biochemical; conditions: crude enzyme from HTLV-III virions
[8] = 10 μg/ml, 6th day, control 100%
[9] = 100 μg/ml, 6th day, control 100%

Row | Substance | Infected cell (%) [1, 8] | Infected cell (%) [1, 9] | anti-AIDS virus activity ([1]; 6th day) | reverse transcriptase inhibition activity [2] | acute toxicity (LD50) ([3]; intravenously) | inhibition of DNA polymerase of phytohemagglutinin stimulated human lymphocytes [4] | inhibition of reverse transcriptase of simian sarcoma virus [5] | cell growth and viability of MT-4 cells infected with HTLV-III [6] | infected cell rate ([6]; indirect immunofluorescence) | Infected cell (%) ([1]; 10 μg/ml, 6th day; control 100%; S-content 17-20), 8640 min) | acute toxicity (LD50) ([3]; orally) | reverse transcriptase inhibitory effect [7]
1 | Chondroitin polysulfate | 3% | 1% | particularly strong anti-AIDS virus activities | stronger activity than the natural substances | – | – | – | – | – | – | – | –
2 | Heparin | 41% | 1% | particularly strong anti-AIDS virus activities | – | 1,500-2,000 mg/kg | inhibit | inhibit | the number of cells and viability were maintained to that of control | less susceptible to the viral infection | – | – | –
3 | Sodium dextran sulfate [Sodium dextran sulfate (molecular weight: 7000-8000, S-conte] | – | 0% | – | – | 4,500 mg/kg | – | – | – | – | 1% | 21,000 mg/kg | has an inhibitory effect
